Where “and” joins values, the source holds several entries; their conditions need not be identical. Equal entries are not always repeated.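 Assay format: 96-well plates, 48-hour exposure. At the GI50, growth is halved. The concentration for full growth arrest is given as TGI.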

Holding throughout (assay): growth of human tumour cells (NCI), 48 h
Assay [1] relates to SN12C renal.
Assay [2] relates to A549 NSCLC.
The subject of assay [3] is SW-620 colon.
Assay [4] relates to ACHN renal.
For assay [5], the system named is MOLT-4 leukemia.
Assay [6] deals with UACC-257 melanoma.
The test system of assay [7] is COLO 205 colon.
The subject of assay [8] is U251 CNS.
The test system of assay [9] is NCI-H23 lung.
In assay [10] the test system is M14 melanoma.

With `CC(C)(C)[Si](C)(C)OC1[C@@H](CNC(=O)NC(=O)CCl)O[C@@H](n2cnc3c(N)ncnc32)[C@H]1O[Si](C)(C)C(C)(C)C` (some centres undefined), the GI50 was 0.821 µM in assay [1]; 2.1 µM in [2]; 0.891 µM in [3]; 0.462 µM in [4]; 0.53 µM in [5]; 2.65 µM in [6]. Besides, the GI50 was 1.45 µM in assay [7], 0.849 µM in assay [8], 0.955 µM in assay [9] and 1.07 µM in assay [10]. The TGI in assay [1] came to 1.88 µM; in assay [2], 7.72 µM; in assay [3], 1.77 µM; in assay [4], 1.11 µM; in assay [5] it was 1.73 µM; in [6], 6.93 µM. For the same compound, the TGI in [7] is 3.55 µM; in assay [8], 1.58 µM; in assay [9], 2.08 µM; in assay [10] it was 2.49 µM.

Turning to `O=C(c1ccco1)c1c(C(F)(F)F)n([O-])c2ccc(C(F)(F)F)cc2[n+]1=O`, the GI50 in [1] was 0.255 µM; in assay [2] it was 0.254 µM; in [3], 0.159 µM; in assay [4] it was 0.168 µM; in assay [5], 0.0912 µM; in [6] it was 1.49 µM. The GI50 in assay [7] is 0.468 µM; in assay [8] it was 0.217 µM; in [9] it was 0.853 µM; in assay [10] it was 1.04 µM. Besides, the TGI in assay [1] was 0.556 µM; in assay [2], 0.7 µM; in [3] it was 0.338 µM; in assay [4] it was 0.362 µM; in assay [5], 0.313 µM; in [6], 3.06 µM. In addition, the TGI was 0.987 µM in [7], 0.536 µM in [8], 2.3 µM in assay [9] and 2.48 µM in assay [10].

Take `CC(C)CCC[C@@H](C)C1CCC2[C@@H]3CC=C4C[C@@H](C(=O)NCCN(C)C)CC[C@]4(C)C3CC[C@@]21C` (some centres undefined): the TGI in [1] is 46.7 µM; in [2], over 100 µM; in assay [3], over 100 µM; in assay [4], over 100 µM; in assay [5] it was over 100 µM; in assay [6] it was 77.1 µM. In addition, the TGI in [7] was 38.3 µM; in assay [8], 77.4 µM; in assay [9], 52.1 µM; in [10] it was 32.6 µM.

For the compound `CC(C)c1[nH]nc2c1N=C(c1ccccc1Cl)c1cc([N+](=O)[O-])ccc1N2`, the GI50 in assay [1] was 8.17 µM; in assay [2] it was 5.18 µM; in [3] it was 2.2 µM; in [4], 5.45 µM; in [5], 6.76 µM; in [6], 10.1 µM. In addition, the GI50 in assay [7] is 10.3 µM; in assay [8] it was 6.16 µM; in assay [9], 7.24 µM; in assay [10], 7.63 µM. Moreover, the TGI was over 25 µM in assay [1]; over 22.3 µM in assay [2]; over 25 µM in [3]; 20.4 µM in [4]; 20.6 µM in assay [5]; over 25 µM in assay [6]. The TGI in assay [7], in [8], in assay [9] and in assay [10] was over 25 µM throughout.

As for `O=[N+]([O-])c1cccc(C2=NOC(C3CCCCC3)C2)c1` (centres undefined), the TGI in assay [1], in assay [2], in assay [3], in assay [4], in assay [5] and in [6] was over 100 µM each time. Besides, the TGI in [7], in assay [8], in [9] and in assay [10] was over 100 µM in each case.

Consider `COc1cc(/C=C2\[C@H]3c4c(c(OC)c(C)c(OC)c4OC)CC(C(=O)N2Cc2ccccc2)N3C)c(OC)c(C)c1OC`, for which the TGI was 33.1 µM in assay [1]; over 100 µM in assay [2]; 41.5 µM in [3]; 78.7 µM in assay [4]; 56.9 µM in [5]; 39.6 µM in [6]. Also, the TGI was 32.5 µM in [7], 34.7 µM in assay [8], over 100 µM in [9] and 36 µM in assay [10].

Take `COc1cc2c(Nc3cc(Cl)c(OC)c(Cl)c3)c(C#N)cnc2cc1OCCCN1CCN(C)CC1`: the GI50 in [1] was 0.95 µM; in [2], 1.5 µM; in [3] it was 2.18 µM; in assay [4], 0.239 µM; in assay [5] it was 1.67 µM; in assay [6] it was 1.67 µM. Moreover, the GI50 in assay [7] was 2.02 µM; in [8], 1.92 µM; in assay [9] it was 1.54 µM; in assay [10] it was 1.1 µM. The TGI in assay [1] was found to be 17.2 µM; in [2], 4.12 µM; in [3] it was 6.03 µM; in assay [4], 3.58 µM; in assay [5], 7.92 µM; in [6], 3.07 µM. In addition, the TGI in assay [7] stood at 3.79 µM; in assay [8] it was 4.05 µM; in assay [9], 4.89 µM; in [10], 2.57 µM.

Consider `COc1ccc(-c2ccc3c(N4CCOC[C@@H]4C)nc(N4CCOC[C@@H]4C)nc3n2)cc1CO`, for which the GI50 in assay [1] is 0.0053 µM and 0.0208 µM; in assay [2] it was 0.0052 µM and 0.0253 µM; in [3] it was 0.0078 µM and 0.0537 µM; in assay [4] it was 0.00495 µM and 0.0209 µM; in [5] it was 0.00584 µM and 0.0488 µM; in [6], 0.00454 µM and 0.023 µM. In addition, the GI50 is 0.00502 µM and 0.0474 µM in assay [7]; 0.00762 µM and 0.0341 µM in assay [8]; 0.00731 µM and 0.0394 µM in [9]; 0.00517 µM and 0.0262 µM in assay [10]. Besides, the TGI is over 100 µM in assay [1]; 1.78 µM and 0.57 µM in assay [2]; over 100 µM in assay [3]; over 100 µM in assay [4]; > 6.64 µM and 37.1 µM in [5]; 0.0285 µM in assay [6]. For the same compound, the TGI in [8] is over 54.1 µM; in [9], over 100 µM; in assay [10], 20.5 µM.

On to `CCCC/C(=C\C1=C(C)C(=O)C(OC)=C(OC)C1=O)C(=O)O`, for which the GI50 in assay [1] is over 100 µM; in assay [2], over 100 µM; in assay [3], over 100 µM; in assay [4], over 100 µM; in [5], 6.54 µM; in [6], over 100 µM. Moreover, the GI50 in assay [7], in assay [8], in assay [9] and in [10] was over 100 µM each time. The TGI in assay [1], in assay [2], in assay [3], in [4], in assay [5] and in [6] was over 100 µM each time. Further, the TGI in [7], in assay [8], in [9] and in [10] was over 100 µM throughout.

(Values after PubChem BioAssay (NCI).)
